Experiment: Study HDP-CDV-201: safety and tolerability (adverse events, laboratory abnormalities, discontinuations)
Format: in vivo, human (adult allogeneic HSCT recipients)
Method: Clinical Studies of HDP-CDV were performed and described in detail in the following Examples. For example, HDP-CDV-201 is a placebo-controlled, dose-escalating trial in HSCT CMV (R+) recipients, evaluating the ability of HDP-CDV to prevent or control CMV infection was carried out. Five cohorts were established in which participants or subjects received either placebo or the HDP-CDV orally, in doses ranging from 40 mg weekly (QW) to 200 mg twice weekly (BIW). Subjects who were post-HSCT were enrolled at the time of engraftment and randomized to HDP-CDV or placebo (3 to 1 ratio) and received blinded therapy until approximately 100 day post-transplantation. HDP-CDV doses were 40 mg QW, 100 mg QW, 200 mg QW, 200 mg BIW and 100 mg BIW. Escalation to the next dose was decided by the data monitoring committee after review of the safety data from the previous Cohort. Subjects who developed CMV disease or CMV infection requiring pre-emptive therapy with local standard of care were discontinued from blinded therapy and followed for 4 weeks. Subjects who completed treatment with blinded therapy were followed for 8 weeks post-therapy.
Data from Study HDP-CDV-201 also provided characterization of the safety and tolerability profile of HDP-CDV when administered for the prevention or control of CMV infection in high risk (R^+) post-HSCT adult subjects.
The Safety population (SAFETY) included all randomized subjects who took at least one dose of study treatment. This population was used to summarize safety outcomes based on the treatment actually received, in cases where a subject was treated contrary to the randomization schedule.
The safety and tolerability profile of HDP-CDV, including subject demographics and Baseline characteristics; the AE profile; and laboratory abnormalities of interest were analyzed in the cohorts followed in this investigation.
Subjects completing the treatment period received a full course of study medication; those completing the entire study attended visits through 8 weeks of follow up. Subjects who discontinued treatment may have done so for protocol specified reasons (e.g. development of clinically significant CMV infection requiring preemptive treatment with excluded anti-CMV medications) or for other reasons (e.g., withdrawal, adverse events, loss to follow-up). The disposition of subjects in Study HDP-CDV-201 during the double-blind, placebo-controlled treatment period (through Week 11) is listed by dosing Cohort in TABLE 23.
Adverse events were examined by severity to ensure that all safety signals were identified in this study population. Because of the frequency of events in HSCT recipients, particular attention was given to evaluation of Grade 3 […], 4 (severe), and 5 (fatal) adverse events.
Only those preferred terms for which at least one Grade 3 or higher event was experienced in any treatment group are listed. Cytomegalovirus-related AEs are excluded from this analysis.
HDP-CDV is a lipid conjugate of CDV. Because CDV is known to have adverse effects on renal function and bone marrow, decreased GFR and persistent neutropenia were identified as AEs of special interest. Key renal and hematological (TABLE 30) laboratory parameters were measured and listed below by Study HDP-CDV-201 treatment groups. TABLE 30 includes abnormal levels of serum creatinine, neutrophils, platelets, WBCs, and hemoglobin and includes data at Screening and during the treatment period.
A common metric for unit based dosing of medications is by weight (mg/kg). When the distribution of weights was examined for all subjects participating in the study, the median was 78 kg and the lower 25th percentile weight was approximately 65 kg, which translates to a cut-off of ˜3 mg/kg for a 200 mg total weekly dose. Based upon this approach, a cut-off of 3 mg/kg was used to assess the frequency of diarrhea and associated GI AEs reported for the subjects in Cohorts 3 or 4a (TABLE 40).

[1] = Cohort 2, 100 mg QW, through Week 11

CCCCCCCCCCCCCCCCOCCCOP(=O)(O)COC(CO)Cn1ccc(N)nc1=O (stereo not drawn) [HDP-CDV]
14 (51.9%) n (%): Subjects completed study (Cohort 2, 100 mg QW)
1 (3.8%): Total Bilirubin (Screening) >1-[…] ULN, subjects (Cohort 2, 100 mg QW) | Total Bilirubin (Screening) >1.5-3 × ULN, subjects (Cohort 2, 100 mg QW)
9 (33.3%): All AEs leading to withdrawal (Cohort 2, 100 mg QW, N = 27)
6 (22.2%) n (%): TEAE Vomiting (Cohort 2, 100 mg QW, N = 27)
3 (11.1%) n (%): TEAE Anxiety (Cohort 2, 100 mg QW, N = 27) | TEAE Arthralgias (Cohort 2, 100 mg QW, N = 27) | TEAE Fatigue (Cohort 2, 100 mg QW, N = 27) | TEAE Thrombocytopenia (Cohort 2, 100 mg QW, N = 27) | TEAE Tremor (Cohort 2, 100 mg QW, N = 27)
5 (18.5%): Gastrointestinal AE Nausea, subjects (Cohort 2, 100 mg QW)
6 (22.2%): Alkaline Phosphatase (Screening) >ULN-[…] ULN, subjects (Cohort 2, 100 mg QW) | Gastrointestinal AE Vomiting, subjects (Cohort 2, 100 mg QW) | Intensity of Gastrointestinal AEs, Grade 1, subjects (Cohort 2, 100 mg QW)
1 (3.7%) n (%): TEAE ALT increased (Cohort 2, 100 mg QW, N = 27) | TEAE AST increased (Cohort 2, 100 mg QW, N = 27) | TEAE Blood lactate dehydrogenase increased (Cohort 2, 100 mg QW, N = 27) | TEAE Dysgeusia (Cohort 2, 100 mg QW, N = 27) | TEAE Gamma-glutamyltransferase increased (Cohort 2, 100 mg QW, N = 27) | TEAE Hyperglycaemia (Cohort 2, 100 mg QW, N = 27) | TEAE Hyperkalemia (Cohort 2, 100 mg QW, N = 27) | TEAE Hyponatraemia (Cohort 2, 100 mg QW, N = 27) | TEAE Liver function test abnormal (Cohort 2, 100 mg QW, N = 27) | TEAE Pyrexia (Cohort 2, 100 mg QW, N = 27) | TEAE Recurrent flatulence (Cohort 2, 100 mg QW, N = 27) | TEAE Staphylococcal Bacteremia (Cohort 2, 100 mg QW, N = 27)
7 (25.9%): Alkaline Phosphatase (any time during therapy) >ULN-[…] ULN, subjects (Cohort 2, 100 mg QW)
8 (29.6%) n (%): TEAE Diarrhoea (Cohort 2, 100 mg QW, N = 27)
4 (14.8%) n (%): TEAE Cytomegalovirus viremia (Cohort 2, 100 mg QW, N = 27) | TEAE GI Reflux Disease (Cohort 2, 100 mg QW, N = 27) | TEAE Neutropenia (Cohort 2, 100 mg QW, N = 27)
3: Grade of hepatobiliary AE acute liver injury, subject 3007 (Cohort 3)
0.96 fold: Serum ALT level, Median fold increase from Baseline at Follow-up Week 4 (Cohort 2, 100 mg QW)
8 (29.6%): Gastrointestinal AE Diarrhoea, subjects (Cohort 2, 100 mg QW)
2 (7.4%): Gastrointestinal AE Abdominal distention, subjects (Cohort 2, 100 mg QW) | Gastrointestinal AE Abdominal pain upper, subjects (Cohort 2, 100 mg QW) | Gastrointestinal AE Abdominal pain, subjects (Cohort 2, 100 mg QW) | Gastrointestinal AE Dyspepsia, subjects (Cohort 2, 100 mg QW)
0: Alkaline Phosphatase (Screening) >2.5-5.0 × ULN, subjects (Cohort 2, 100 mg QW) | Alkaline Phosphatase (Screening) >5.0-20.0 × ULN, subjects (Cohort 2, 100 mg QW) | Alkaline Phosphatase (Screening) >20.0 × ULN, subjects (Cohort 2, 100 mg QW) | Alkaline Phosphatase (any time during therapy) >20.0 × ULN, subjects (Cohort 2, 100 mg QW) | GI AE Leading to Study Drug Discontinuation: Abdominal pain, subjects (Cohort 2, 100 mg QW) | GI AE Leading to Study Drug Discontinuation: Diarrhoea, subjects (Cohort 2, 100 mg QW) | GI AE Leading to Study Drug Discontinuation: Dyspepsia, subjects (Cohort 2, 100 mg QW) | GI AE Leading to Study Drug Discontinuation: Nausea, subjects (Cohort 2, 100 mg QW) | Gastrointestinal AE Constipation, subjects (Cohort 2, 100 mg QW) | Gastrointestinal AE Diverticulum intestinal haemorragic, subjects (Cohort 2, 100 mg QW) | Gastrointestinal AE Haematochezia, subjects (Cohort 2, 100 mg QW) | Gastrointestinal AE Haemorroids, subjects (Cohort 2, 100 mg QW) | Gastrointestinal AE Large intestinal ulcer, subjects (Cohort 2, 100 mg QW) | Gastrointestinal AE Odynophagia, subjects (Cohort 2, 100 mg QW) | Gastrointestinal AE Oesophagitis, subjects (Cohort 2, 100 mg QW) | Hepatobiliary clinical AE Cholelithiasis, subjects (Cohort 2, 100 mg QW) | Hepatobiliary clinical AE Hepatomegaly, subjects (Cohort 2, 100 mg QW) | Hepatobiliary clinical AE Hyperbilirubinaemia, subjects (Cohort 2, 100 mg QW) | Hepatobiliary clinical AE Jaundice, subjects (Cohort 2, 100 mg QW) | Hepatobiliary clinical AE Liver injury, subjects (Cohort 2, 100 mg QW) | Intensity of Gastrointestinal AEs, Grade 4, subjects (Cohort 2, 100 mg QW) | Intensity of Gastrointestinal AEs, Grade 5, subjects (Cohort 2, 100 mg QW) | Total Bilirubin (Screening) >3-10 × ULN, subjects (Cohort 2, 100 mg QW) | Total Bilirubin (Screening) >10 × ULN, subjects (Cohort 2, 100 mg QW) | Total Bilirubin (any time during therapy) >1-[…] ULN, subjects (Cohort 2, 100 mg QW) | Total Bilirubin (any time during therapy) >3-10 × ULN, subjects (Cohort 2, 100 mg QW) | Total Bilirubin (any time during therapy) >10 × ULN, subjects (Cohort 2, 100 mg QW)
4 (14.8%): Gastrointestinal AE GERD, subjects (Cohort 2, 100 mg QW)
1.53 fold: Serum ALT level, Peak Median fold increase from Baseline (Cohort 2, 100 mg QW)
1.50 fold: Serum ALT level, Median fold increase from Baseline at Follow-up Week 1 (Cohort 2, 100 mg QW)
2 (7.4%) n (%): TEAE Abdominal pain (Cohort 2, 100 mg QW, N = 27) | TEAE Abdominal pain, Upper (Cohort 2, 100 mg QW, N = 27) | TEAE Back Pain (Cohort 2, 100 mg QW, N = 27) | TEAE Hypokalaemia (Cohort 2, 100 mg QW, N = 27) | TEAE Insomnia (Cohort 2, 100 mg QW, N = 27) | TEAE Pneumonia (Cohort 2, 100 mg QW, N = 27) | TEAE Renal Failure (Cohort 2, 100 mg QW, N = 27)
9 (33.3%) n (%): Subjects who permanently discontinued treatment [1]
10 (37.0%): Intensity of Gastrointestinal AEs, Grade 2, subjects (Cohort 2, 100 mg QW)
7 (25.5%) n (%): TEAE Acute GVHD (Cohort 2, 100 mg QW, N = 27)
5 (18.5%) n (%): TEAE Creatinine increased (Cohort 2, 100 mg QW, N = 27) | TEAE Decreased appetite (Cohort 2, 100 mg QW, N = 27) | TEAE Nausea (Cohort 2, 100 mg QW, N = 27) | TEAE Oedema peripheral (Cohort 2, 100 mg QW, N = 27)
0 n (%): TEAE Acute Myeloid Leukemia recurrent (Cohort 2, 100 mg QW, N = 27) | TEAE Acute Renal Failure (Cohort 2, 100 mg QW, N = 27) | TEAE Generalized oedema (Cohort 2, 100 mg QW, N = 27) | TEAE Hyperbilirubinaemia (Cohort 2, 100 mg QW, N = 27) | TEAE Hypocalcaemia (Cohort 2, 100 mg QW, N = 27) | TEAE Increased leukocytosis (Cohort 2, 100 mg QW, N = 27) | TEAE Malnutrition (Cohort 2, 100 mg QW, N = 27) | TEAE Oral Candidiasis (Cohort 2, 100 mg QW, N = 27)
1 (3.7%): Alkaline Phosphatase (any time during therapy) >2.5-5.0 × ULN, subjects (Cohort 2, 100 mg QW) | Alkaline Phosphatase (any time during therapy) >5.0-20.0 × ULN, subjects (Cohort 2, 100 mg QW) | GI AE Leading to Study Drug Discontinuation: Vomiting, subjects (Cohort 2, 100 mg QW) | GI AEs Leading to Study Drug Discontinuation: Total subjects discontinued (Cohort 2, 100 mg QW) | Gastrointestinal AE Abdominal discomfort, subjects (Cohort 2, 100 mg QW) | Gastrointestinal AE Dysphagia, subjects (Cohort 2, 100 mg QW) | Gastrointestinal AE Epigastric discomfort, subjects (Cohort 2, 100 mg QW) | Gastrointestinal AE Flatulence, subjects (Cohort 2, 100 mg QW) | Gastrointestinal AE Gastritis, subjects (Cohort 2, 100 mg QW) | Gastrointestinal AE Retching, subjects (Cohort 2, 100 mg QW) | Intensity of Gastrointestinal AEs, Grade 3, subjects (Cohort 2, 100 mg QW) | Total Bilirubin (any time during therapy) >1.5-3 × ULN, subjects (Cohort 2, 100 mg QW) | Vomiting leading to study drug withdrawal (Cohort 2, 100 mg QW, N = 27)
0%: Proportion of Subjects with Stage 3 or 4 Gut GVHD (Cohort 2, 100 mg QW) | Abdominal pain leading to study drug withdrawal (Cohort 2, 100 mg QW, N = 27) | Diarrhoea leading to study drug withdrawal (Cohort 2, 100 mg QW, N = 27) | Dyspepsia leading to study drug withdrawal (Cohort 2, 100 mg QW, N = 27) | Nausea leading to study drug withdrawal (Cohort 2, 100 mg QW, N = 27) | All AEs, Grade 5 (deaths) (Cohort 2, 100 mg QW, N = 27, entire study duration) | Proportion of Subjects with Grade 3 Diarrhea (Cohort 2, 100 mg QW, no Grade 4 or 5 diarrhea in any Cohort)
18 (66.7%) n (%): Subjects completed treatment [1]

From patent US20140303092A1 (CHIMERIX, INC., priority 2011, published 2014)
